Source: patent US20250041189A1, “STEM CELL PROLIFERATION PROMOTER” (SHISEIDO COMPANY, LTD., priority 2021, published 2025)

Experiments:
[1] = test system: epidermal stem cells; conditions: disclosed in NPL 1 (Iriyama et al., Scientific Reports 2020); cited from earlier work
[2] = test system: epidermal stem cells; experiment: Culturing of fresh human skin with agents, fluorescent immunostaining for Ki-67 and MCSP; type: cell-based; conditions: fresh human abdominal skin, final concentration 0.01%
Experimental: Fresh skin samples taken from the abdominal regions of participants (aged 20 to 30) with informed consent were purchased from KAC Co., Ltd. The samples were cultured in medium comprising an equal mixture of 10% FBS-DMEM (Thermo Fisher Scientific K.K., 11885084) and Humedia-KG2 (KURABO Industries Ltd., KK-2150S) with addition of 1-(2-hydroxyethyl)-2-imidazolidinone (“S173”, final concentration: 0.01%), which has an effect of inhibiting both MMP-9 and heparanase, […]”, final concentration: 0.01%), or a combination of 1-(2-hydroxyethyl)-2-imidazolidinone and […]”, final concentration: 0.01%). As a control, culturing was carried out in medium containing an equal amount of DMSO solvent lacking these agents. Medium was exchanged daily, and skin tissue slices were collected on the 2nd day (Day2). Following the AMeX method, fresh human skin was dehydrated and fixed using cold acetone and exchanged with acetone, methyl benzoate and xylene in that order, and then embedded in paraffin. Slices with thicknesses of 3 μm were prepared for tissue staining. Paraffin slices cut to 3 μm thicknesses were deparaffinized with xylene and hydrated using EtOH. Antibodies for Ki-67 (SP6) (Thermo Fisher Scientific K.K., RM-9106-S, rabbit […] monoclonal antibody) and antibodies for MCSP (melanoma-associated chondroitin sulphate proteoglycan) (Millipore, MAB2029, 9.2.27, mouse monoclonal antibody) were used for fluorescent immunostaining.

[3] = Day2, compared to control without addition of agent (Day2 control)

O=C1NCCN1CCO [S173, 1-(2-hydroxyethyl)-2-imidazolidinone]
effect on epidermal stem cell counts [1]: maintaining epidermal stem cell counts | number of Ki67-positive cells (cell proliferation marker) [2, 3]: increased | number of MCSP-positive cells (epidermal basal stem cell marker) [2, 3]: increased | number of Ki67+MCSP-positive cells ([2]; Day2, compared to the control): increased | number of stem cells (MCSP-positive) relative to Day0 ([2]; after culturing for 2 days, compared to Day0 level): maintained at the level of Day0
